Experimental data published in patent publication US20050064014A1, “Use of cystathionine” (priority 2001, published 2005).
In brackets after ≈: the same amount, converted by molar mass. Like-named read-outs stand apart in the source and are kept apart here.

Key:
[1] = format: physicochemical; conditions: for L-cystathionine (3 mM) Evaluated loss / L-cysteine (3 mM) Evaluated loss / L-cysteine (3 mM) Free cysteine / L-cysteine (3 mM) Oxidized cysteine: 121° C. for 15 minutes in an autoclave
Method: (§1) The stability of the cystathionine compared to that of cysteine was tested with deionized water and in various liquid enteral formulae (SONDALIS and REABILAN). REABILAN and SONDALIS (registered trademarks) are different enteral compositions comprising 35% of energy in the form of lipids, 50-52.5% in the form of carbohydrates, in particular of maltodextrins and starches, 12.5-15% in the form of peptides or proteins, and also comprising vitamins, mineral salts and other compounds such as taurine or L-camitine.
Stability Under Harsh Sterilization Conditions (121° C.-15 min) at 3 mM Concentration
Unlike cysteine, the cystathionine is found to be very stable.
In the enteral formulae, and after heat treatment, the amount of available cysteine decreases very substantially, and the relative loss of cysteine increases when the amount added decreases.

glutathione status = test: Physiological effectiveness: diet supplementation in infected rats (sepsis), glutathione concentration; format: in vivo; conditions: standard protein diet supplemented with cystathionine, compared with cysteine positive control group
Description: Groups of sick rats receiving differentiated diets are compared with regard to the glutathione concentration in various organs but especially in the liver. The liver is in fact the major organ for regulating glutathione synthesis in terms of the whole body. The compared groups received a standard protein diet supplemented either with an amino acid considered to be neutral with respect to glutathione (alanine) (control group), or with cysteine (positive control group), or with cystathionine (test group). A group of animals which are not sick is also realized (normal group).

[2] = Maximum solubility in water; format: physicochemical; conditions: water at 25° C.; read-out: maximum level of solubility in water
Method: (§2) The cystathionine was added at its maximum level of solubility in water at 25° C., i.e. 0.6 mg/mL of water. The mixture was treated at 121° C. for 15 minutes in an autoclave and was analyzed.

[3] = Stability under THA sterilization conditions (140° C.-15″), 43 mM in SONDALIS; format: physicochemical; conditions: THA sterilization 140° C.-15″
Method: Stability Under THA Sterilization Conditions (140° C.-15''), at High Concentration (43 mM) in […] […] The THA conditions therefore conventionally induce much less degradation than those described above, but slightly more than industrial UHT conditions. The high concentration (43 mM) was chosen because it falls within the average of that which may be recommended in enteral nutrition products. Under these conditions, the losses of cysteine are lower than for the harsh sterilization conditions (121° C.-15') but remain much too high (27%) for use in a nutrition product.

[4] = test system: hepatic glutathione status; conditions: rats with sepsis, diet supplemented with cysteine; cited from earlier work
[5] = Stability in water, autoclave 121° C. for 15 minutes; format: physicochemical; conditions: after 121° C. for 15 minutes
Method: as §1, §2
In water, cystathionine is very stable, even after treatment at 121° C. for 15 minutes, since the degree of recovery is 100%, and the cysteine is slightly oxidized to cystine (6%).

SMILES | stability in the enteral formulae before heat treatment [1] | L-cystathionine (3 mM) Evaluated loss ([1]; REABILAN) [%] | L-cystathionine (3 mM) Evaluated loss ([1]; SONDALIS) [%] | glutathione concentration (glutathione status) | solubility [2] [µg/mL] | L-cystathionine (43 mM) Evaluated loss [3] [%] | L-cystathionine (43 mM) Non-degraded form [3] [%] | L-cystathionine (43 mM) Evaluated loss ([3]; listed as cystathionine) | L-cysteine (3 mM) Evaluated loss ([1]; REABILAN) [%] | L-cysteine (3 mM) Free cysteine ([1]; REABILAN) [%] | L-cysteine (3 mM) Oxidized cysteine ([1]; REABILAN) [%] | L-cysteine (3 mM) Evaluated loss ([1]; SONDALIS) [%] | L-cysteine (3 mM) Free cysteine ([1]; SONDALIS) [%] | L-cysteine (3 mM) Oxidized cysteine ([1]; SONDALIS) [%] | hepatic glutathione status [4] | oxidized to cystine [5] [%] | L-cysteine (43 mM) Evaluated loss [3] [%] | L-cysteine (43 mM) Free cysteine [3] [%] | L-cysteine (43 mM) Oxidized cysteine [3] [%] | L-cysteine (43 mM) Evaluated loss ([3]; listed as cysteine) [%]
N[C@@H](CCSC[C@H](N)C(=O)O)C(=O)O [L-cystathionine, cystathionine] | very stable | 0 | 17 | level equivalent to that of the positive control group | 600 (≈ 2700 µM) | 4 | 96 | at the limit of reproducibility of the assaying method | – | – | – | – | – | – | – | – | – | – | – | –
N[C@@H](CS)C(=O)O [L-cysteine, cysteine] | relatively unstable | – | – | – | – | – | – | – | 83 | 12 | 5 | 86 | 11 | 3 | re-establish hepatic glutathione status at the level of a normal animal | 6 | 27 | 66 | 7 | 27
